Experimental data: patent publication US12371454B2, “Cyclic peptide compound having Kras inhibitory action” (priority 2019, dated 2025)
Starred links: 1 amine or outer side, 2 acyl side, 3 side chain; linkers in the order of their positions; H or OH if unused. Positions of bridges follow the written chain, without caps; N, C: chain ends. Non-standard residues stand in square brackets, D forms with d. Residues, ends and D or L forms follow the SMILES beside them. *: point of attachment. hPhe(3,5-F2-4-CF3) = N[C@@H](CCc1cc(F)c(C(F)(F)F)c(F)c1)C(=O)O; hPhe(3-Cl-4-CF3) = N[C@@H](CCc1ccc(C(F)(F)F)c(Cl)c1)C(=O)O; hPhe(3-F,4-CF3) = N[C@@H](CCc1ccc(C(F)(F)F)c(F)c1)C(=O)O; NMePhe(4-CF3) = CN[C@@H](Cc1ccc(C(F)(F)F)cc1)C(=O)O; Pro(cis-4-Ph) = O=C(O)[C@@H]1C[C@H](c2ccccc2)CN1; 3Oxa8azabicyclo(3.2.1)octane = C1CC2COCC1N2*; NMePhe(4-Me) = CN[C@@H](Cc1ccc(C)cc1)C(=O)O; NMedβ3hAla = C[C@H](CC(=O)[*:2])N(C)[*:1]; NMeNva(5,5-F2) = CN[C@@H](CCC(F)F)C(=O)O; NMeGly(cPent) = CN[C@H](C(=O)O)C1CCCC1; NMeGly(cBu) = CN[C@H](C(=O)O)C1CCC1; NMeCha = CN[C@@H](CC1CCCCC1)C(=O)O; cisHyp = O=C(O)[C@@H]1C[C@H](O)CN1; Hyp = O=C(O)[C@@H]1C[C@@H](O)CN1; NEtLeu = CCN[C@@H](CC(C)C)C(=O)O; NMeCba = CN[C@@H](CC1CCC1)C(=O)O; NMeChg = CN[C@H](C(=O)O)C1CCCCC1; NMeI = CC[C@H](C)[C@H](NC)C(=O)O; NMeT = CN[C@H](C(=O)O)[C@@H](C)O; NMeD = CN[C@@H](CC(=O)O)C(=O)O; NMeL = CN[C@@H](CC(C)C)C(=O)O; NMeV = CN[C@H](C(=O)O)C(C)C; d(β3hA) = C[C@@H](N)CC(=O)O; NMeS = CN[C@@H](CO)C(=O)O; Pip = O=C(O)[C@@H]1CCCCN1; NMeA = CN[C@@H](C)C(=O)O; Piperidide = C1CCN(*)CC1; Pyrrolidide = C1CCN(*)C1; Ac5c = NC1(C(=O)O)CCCC1; Aze = O=C(O)[C@@H]1CCN1; Isopentyl = CC(C)CC*; Sar = CNCC(=O)O

Tested on: Human pancreatic cancer cell line AsPC-1
Assay: Measurement of AsPC-1 cell growth inhibition (AsPC-1 CGI)
Format: cell-based
Settings: 96 h
Outline: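 AsPC-1 cells in 15% FBS RPMI-1640 were exposed to test compound for 96 hours at 37° C, with CellTiter-Glo as endpoint.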

Structure (SMILES) | IC50 [nM]
CC[C@H](C)[C@@H]1NC(=O)[C@H](CC(C)C)N(C)C(=O)C[C@@H](C(=O)N2CCCCC2)N(C)C(=O)[C@H]([C@@H](C)CC)N(C)C(=O)C2(CCCC2)NC(=O)[C@@H]2CCCN2C(=O)[C@H](CCc2ccc(C(F)(F)F)c(F)c2)NC(=O)CN(C)C(=O)[C@H](CC2CCCCC2)N(C)C(=O)[C@@H]2CCN2C(=O)[C@H](C)N(C)C1=O [Compound 409] ([NMeL]I[NMeA][Aze][NMeCha][Sar][hPhe(3-F,4-CF3)]P[Ac5c][NMeI][NMeD]-Piperidide; lactam N-11) | 50 to 100
CC[C@H](C)[C@@H]1NC(=O)[C@H](CC(C)C)N(C)C(=O)C[C@@H](C)NC(=O)[C@H](C(C)C)N(C)C(=O)C2(CCCC2)NC(=O)[C@@H]2CCCN2C(=O)[C@H](CCc2ccc(C(F)(F)F)c(Cl)c2)NC(=O)CN(C)C(=O)[C@H](CC2CCCCC2)N(C)C(=O)[C@@H]2CCN2C(=O)[C@@H]2CCCCN2C1=O [Compound 416] (cyclo([Ac5c][NMeV][d(β3hA)][NMeL]I[Pip][Aze][NMeCha][Sar][hPhe(3-Cl-4-CF3)]P)) | 100 to 500
CC[C@H](C)[C@@H]1NC(=O)[C@H](CC(C)C)N(C)C(=O)C[C@@H](C(=O)N2CCCCC2)N(C)C(=O)[C@H](C2CCCCC2)N(C)C(=O)C2(CCCC2)NC(=O)[C@@H]2C[C@H](c3ccccc3)CN2C(=O)[C@H](CCc2ccc(C(F)(F)F)c(Cl)c2)NC(=O)CN(C)C(=O)[C@H](CC2CCCCC2)N(C)C(=O)CN(C)C(=O)CN(C)C1=O [Compound 428] ([NMeL]I[Sar][Sar][NMeCha][Sar][hPhe(3-Cl-4-CF3)][Pro(cis-4-Ph)][Ac5c][NMeChg][NMeD]-Piperidide; lactam N-11) | 100 to 500
CC[C@H](C)[C@@H]1NC(=O)[C@H](CC(C)C)N(C)C(=O)C[C@@H](C(=O)N2CCCCC2)N(C)C(=O)[C@H](C(C)C)N(C)C(=O)C2(CCCC2)NC(=O)[C@@H]2CCCN2C(=O)[C@H](CCc2ccc(C(F)(F)F)c(Cl)c2)NC(=O)CN(C)C(=O)[C@H](C2CCC2)N(C)C(=O)[C@@H]2CCN2C(=O)[C@H](C)N(C)C1=O [Compound 446] ([NMeL]I[NMeA][Aze][NMeGly(cBu)][Sar][hPhe(3-Cl-4-CF3)]P[Ac5c][NMeV][NMeD]-Piperidide; lactam N-11) | 100 to 500
CC[C@H](C)[C@@H]1NC(=O)[C@H](CC(C)C)N(C)C(=O)C[C@@H](C(=O)N2CCCC2)NC(=O)[C@H]([C@@H](C)CC)N(C)C(=O)C2(CCCC2)NC(=O)[C@@H]2CCCN2C(=O)[C@H](CCc2ccc(C(F)(F)F)c(Cl)c2)NC(=O)CN(C)C(=O)[C@H](CC2CCCCC2)N(C)C(=O)[C@@H]2CCN2C(=O)[C@H](C)N(C)C1=O [Compound 453] ([NMeL]I[NMeA][Aze][NMeCha][Sar][hPhe(3-Cl-4-CF3)]P[Ac5c][NMeI]D-Pyrrolidide; lactam N-11) | 50 to 100
CC[C@H](C)[C@@H]1NC(=O)[C@H](CC2CCC2)N(C)C(=O)C[C@@H](C)NC(=O)[C@H](C(C)C)N(C)C(=O)C2(CCCC2)NC(=O)[C@@H]2CCCN2C(=O)[C@H](CCc2ccc(C(F)(F)F)c(Cl)c2)NC(=O)CN(C)C(=O)[C@H](CC2CCCCC2)N(C)C(=O)[C@@H]2CCN2C(=O)[C@H](C)N(C)C1=O [Compound 455] (cyclo([Ac5c][NMeV][d(β3hA)][NMeCba]I[NMeA][Aze][NMeCha][Sar][hPhe(3-Cl-4-CF3)]P)) | 100 to 500
CC[C@H](C)[C@@H]1NC(=O)[C@H](CC(C)C)N(C)C(=O)C[C@@H](C(=O)N2C3CCC2COC3)N(C)C(=O)[C@H]([C@@H](C)CC)N(C)C(=O)C2(CCCC2)NC(=O)[C@@H]2CCCN2C(=O)[C@H](CCc2ccc(C(F)(F)F)c(Cl)c2)NC(=O)CN(C)C(=O)[C@H](CC2CCCCC2)N(C)C(=O)[C@@H]2CCN2C(=O)[C@H](C)N(C)C1=O [Compound 469] ([NMeL]I[NMeA][Aze][NMeCha][Sar][hPhe(3-Cl-4-CF3)]P[Ac5c][NMeI][NMeD]-{3Oxa8azabicyclo(3.2.1)octane}; lactam N-11) | 20 to 50
CC[C@H](C)[C@@H]1NC(=O)[C@H](CC(C)C)N(C)C(=O)C[C@@H](C(=O)N2CCCCC2)N(C)C(=O)[C@H](C(C)C)N(C)C(=O)C2(CCCC2)NC(=O)[C@@H]2CCCN2C(=O)[C@H](CCc2ccc(C(F)(F)F)c(Cl)c2)NC(=O)CN(C)C(=O)[C@H](COCCC(C)C)N(C)C(=O)[C@@H]2CCN2C(=O)[C@H](C)N(C)C1=O [Compound 470] ([NMeL]I[NMeA][Aze][NMeS](Isopentyl)[Sar][hPhe(3-Cl-4-CF3)]P[Ac5c][NMeV][NMeD]-Piperidide; lactam N-11) | 100 to 500
CC[C@H](C)[C@@H]1NC(=O)[C@H](CC(C)C)N(C)C(=O)C[C@@H](C(=O)N2CCCCC2)N(C)C(=O)[C@H](C(C)C)N(C)C(=O)C2(CCCC2)NC(=O)[C@@H]2CCCN2C(=O)[C@H](CCc2ccc(C(F)(F)F)c(Cl)c2)NC(=O)CN(C)C(=O)[C@H](CC2CCCCC2)N(C)C(=O)[C@@H]2CCN2C(=O)[C@H](C)N(C)C1=O [Compound 476] ([NMeL]I[NMeA][Aze][NMeCha][Sar][hPhe(3-Cl-4-CF3)]P[Ac5c][NMeV][NMeD]-Piperidide; lactam N-11) | 100 to 500
CCO[C@@H]1C[C@H]2C(=O)NC3(CCCC3)C(=O)N(C)[C@@H](C3CCCCC3)C(=O)N(C)[C@H](C)CC(=O)N(C)[C@@H](CC(C)C)C(=O)N[C@@H]([C@@H](C)CC)C(=O)N(C)[C@@H](C)C(=O)N3CC[C@H]3C(=O)N(C)[C@@H](Cc3ccc(C(F)(F)F)cc3)C(=O)N(C)CC(=O)N[C@@H](CCc3cc(F)c(C(F)(F)F)c(F)c3)C(=O)N2C1 [Compound 486] (cyclo([Ac5c][NMeChg][NMedβ3hAla][NMeL]I[NMeA][Aze][NMePhe(4-CF3)][Sar][hPhe(3,5-F2-4-CF3)][Hyp](Et))) | 50 to 100
CC[C@H](C)[C@@H]1NC(=O)[C@H](CC(C)C)N(C)C(=O)C[C@@H](C)NC(=O)[C@H](C(C)C)N(C)C(=O)C2(CCCC2)NC(=O)[C@@H]2CCCN2C(=O)[C@H](CCc2ccc(C(F)(F)F)c(Cl)c2)NC(=O)CN(C)C(=O)[C@H](CC2CCCCC2)N(C)C(=O)[C@@H]2CCN2C(=O)[C@H](C)N(C)C1=O [Compound 488] (cyclo([Ac5c][NMeV][d(β3hA)][NMeL]I[NMeA][Aze][NMeCha][Sar][hPhe(3-Cl-4-CF3)]P)) | 100 to 500
CC[C@H](C)[C@@H]1NC(=O)[C@H](CC(C)C)N(C)C(=O)C[C@@H](C(=O)N2CCCCC2)N(C)C(=O)[C@H](C(C)C)N(C)C(=O)C2(CCCC2)NC(=O)[C@@H]2CCCN2C(=O)[C@H](CCc2ccc(C(F)(F)F)c(Cl)c2)NC(=O)CN(C)C(=O)[C@H](CC2CCCCC2)N(C)C(=O)[C@@H]2CCN2C(=O)[C@H]([C@@H](C)O)N(C)C1=O [Compound 496] ([NMeL]I[NMeT][Aze][NMeCha][Sar][hPhe(3-Cl-4-CF3)]P[Ac5c][NMeV][NMeD]-Piperidide; lactam N-11) | 100 to 500
CO[C@H](C)[C@@H]1NC(=O)[C@H](CC(C)C)N(C)C(=O)C[C@@H](C(=O)N2CCCCC2)N(C)C(=O)[C@H](C(C)C)N(C)C(=O)C2(CCCC2)NC(=O)[C@@H]2CCCN2C(=O)[C@H](CCc2ccc(C(F)(F)F)c(Cl)c2)NC(=O)CN(C)C(=O)[C@H](CC2CCCCC2)N(C)C(=O)[C@@H]2CCN2C(=O)[C@H](C)N(C)C1=O [Compound 497] ([NMeL]T(Me)[NMeA][Aze][NMeCha][Sar][hPhe(3-Cl-4-CF3)]P[Ac5c][NMeV][NMeD]-Piperidide; lactam N-11) | 100 to 500
CC[C@H](C)[C@@H]1NC(=O)[C@H](CC(C)C)N(C)C(=O)C[C@@H](C(=O)N2CCCCC2)N(C)C(=O)[C@H](C2CCCCC2)N(C)C(=O)C2(CCCC2)NC(=O)[C@H](CCC(F)F)N(C)C(=O)[C@H](CCc2ccc(C(F)(F)F)c(Cl)c2)NC(=O)CN(C)C(=O)[C@H](CC2CCCCC2)N(C)C(=O)CN(C)C(=O)CN(C)C1=O [Compound 523] ([NMeL]I[Sar][Sar][NMeCha][Sar][hPhe(3-Cl-4-CF3)][NMeNva(5,5-F2)][Ac5c][NMeChg][NMeD]-Piperidide; lactam N-11) | 100 to 500
CC[C@H](C)[C@@H]1NC(=O)[C@H](CC(C)C)N(CC)C(=O)C[C@@H](C)NC(=O)[C@H](C2CCCC2)N(C)C(=O)C2(CCCC2)NC(=O)[C@@H]2CCCN2C(=O)[C@H](CCc2ccc(C(F)(F)F)c(Cl)c2)NC(=O)CN(C)C(=O)[C@H](Cc2ccc(C)cc2)N(C)C(=O)[C@@H]2CCN2C(=O)[C@H](C)N(C)C1=O [Compound 531] (cyclo([Ac5c][NMeGly(cPent)][d(β3hA)][NEtLeu]I[NMeA][Aze][NMePhe(4-Me)][Sar][hPhe(3-Cl-4-CF3)]P)) | 20 to 50
CC[C@H](C)[C@@H]1NC(=O)[C@H](CC(C)C)N(C)C(=O)C[C@@H](C(=O)N2CCCCC2)N(C)C(=O)[C@H](CC(C)C)N(C)C(=O)C2(CCCC2)NC(=O)[C@@H]2C[C@H](O)CN2C(=O)[C@H](CCc2ccc(C(F)(F)F)c(F)c2)NC(=O)CN(C)C(=O)[C@H](CC2CCCCC2)N(C)C(=O)CN(C)C(=O)CN(C)C1=O [Compound 544, (3S,9S,18S,21S,25S,28S,34S,36S)-9-(cyclohexylmethyl)-3-[2-[3-fluoro-4-(trifluoromethyl)phenyl]ethyl]-36-hydroxy-21,28-diisobutyl-7,10,13,16,22,26,29-heptamethyl-18-[(1S)-1-methylpropyl]-25-(piperidine-1-carbonyl)spiro[1,4,7,10,13,16,19,22,26,29,32-undecazabicyclo[32.3.0]heptatriacontane-31,1′-cyclopentane]-2,5,8,11,14,17,20,23,27,30,33-undecone] ([NMeL]I[Sar][Sar][NMeCha][Sar][hPhe(3-F,4-CF3)][cisHyp][Ac5c][NMeL][NMeD]-Piperidide; lactam N-11) | 100 to 500
CC[C@H](C)[C@@H]1NC(=O)[C@H](CC(C)C)N(C)C(=O)C[C@@H](C(=O)N2CCCCC2)N(C)C(=O)[C@H](C2CCCCC2)N(C)C(=O)C2(CCCC2)NC(=O)[C@@H]2CCCN2C(=O)[C@H](CCc2ccc(C(F)(F)F)c(Cl)c2)NC(=O)CN(C)C(=O)[C@H](CC2CCCCC2)N(C)C(=O)CN(C)C(=O)CN(C)C1=O [Compound 558] ([NMeL]I[Sar][Sar][NMeCha][Sar][hPhe(3-Cl-4-CF3)]P[Ac5c][NMeChg][NMeD]-Piperidide; lactam N-11) | 20 to 50
